Assay results published in article PMC8213057, “Targeting ALK2: An Open Science Approach to Developing Therapeutics for the Treatment of Diffuse Intrinsic Pontine Glioma” (Journal of Medicinal Chemistry, 2020).

Key:
JAK3 = molecular target: T1, JAK3 (Homo sapiens, UniProt P52333); details: 1 μM; Run 1, Run 2
T1 sequence (P52333 1-1124): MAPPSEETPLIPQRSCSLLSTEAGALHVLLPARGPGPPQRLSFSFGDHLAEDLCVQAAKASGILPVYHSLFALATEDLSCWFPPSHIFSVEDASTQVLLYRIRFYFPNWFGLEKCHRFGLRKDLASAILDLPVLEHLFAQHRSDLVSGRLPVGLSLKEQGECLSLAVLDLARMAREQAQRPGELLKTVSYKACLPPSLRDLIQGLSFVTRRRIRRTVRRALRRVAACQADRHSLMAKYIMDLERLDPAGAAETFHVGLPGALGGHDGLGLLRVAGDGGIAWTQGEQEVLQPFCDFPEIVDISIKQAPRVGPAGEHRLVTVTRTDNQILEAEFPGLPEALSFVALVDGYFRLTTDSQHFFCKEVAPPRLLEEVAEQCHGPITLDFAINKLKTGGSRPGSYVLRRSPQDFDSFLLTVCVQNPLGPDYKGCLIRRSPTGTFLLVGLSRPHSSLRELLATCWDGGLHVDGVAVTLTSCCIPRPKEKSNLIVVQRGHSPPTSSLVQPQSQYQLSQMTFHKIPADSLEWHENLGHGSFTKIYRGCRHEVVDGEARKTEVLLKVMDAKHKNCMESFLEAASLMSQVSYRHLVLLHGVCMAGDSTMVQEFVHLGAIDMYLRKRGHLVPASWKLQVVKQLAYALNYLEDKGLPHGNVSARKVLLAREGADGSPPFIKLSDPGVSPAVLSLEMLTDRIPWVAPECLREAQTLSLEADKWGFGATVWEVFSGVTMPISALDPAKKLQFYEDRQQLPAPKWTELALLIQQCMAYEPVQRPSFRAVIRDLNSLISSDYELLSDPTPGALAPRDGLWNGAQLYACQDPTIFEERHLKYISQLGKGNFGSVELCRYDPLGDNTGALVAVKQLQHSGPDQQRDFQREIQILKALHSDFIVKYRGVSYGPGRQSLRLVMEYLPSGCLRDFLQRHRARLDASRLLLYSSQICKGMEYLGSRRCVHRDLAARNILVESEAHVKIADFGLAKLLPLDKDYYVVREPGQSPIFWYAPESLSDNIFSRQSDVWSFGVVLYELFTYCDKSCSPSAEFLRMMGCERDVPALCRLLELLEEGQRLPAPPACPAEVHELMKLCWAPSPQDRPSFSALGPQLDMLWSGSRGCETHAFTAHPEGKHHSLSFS

ERK2/MAPK1 = ERK2/MAPK1 (Homo sapiens, UniProt P28482); experiment: biochemical; details: read-out: % enzyme activity, 1 μM; Run 1, Run 2
HCK = HCK (Homo sapiens, UniProt P08631); experiment: biochemical; details: read-out: % enzyme activity, 1 μM; Run 1, Run 2
CK1a1L = molecular target: T2, CK1a1L (Homo sapiens, UniProt Q8N752); experiment: biochemical; details: read-out: % enzyme activity, 1 μM; Run 1, Run 2
T2 sequence (Q8N752 1-337): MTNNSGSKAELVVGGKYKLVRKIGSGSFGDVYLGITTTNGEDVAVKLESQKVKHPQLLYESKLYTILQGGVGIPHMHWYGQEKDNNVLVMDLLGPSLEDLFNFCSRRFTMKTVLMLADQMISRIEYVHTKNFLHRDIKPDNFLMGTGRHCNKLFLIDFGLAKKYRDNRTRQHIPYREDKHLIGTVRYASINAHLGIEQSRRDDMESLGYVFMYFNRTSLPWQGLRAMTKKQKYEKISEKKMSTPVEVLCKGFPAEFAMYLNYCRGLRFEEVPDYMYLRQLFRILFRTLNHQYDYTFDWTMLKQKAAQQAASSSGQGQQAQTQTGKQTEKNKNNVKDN

IKKb/IKBKB = molecular target: T3, IKKb/IKBKB (Homo sapiens, UniProt O14920); experiment: biochemical; details: read-out: % enzyme activity, 1 μM; Run 1, Run 2
T3 sequence (O14920 1-756): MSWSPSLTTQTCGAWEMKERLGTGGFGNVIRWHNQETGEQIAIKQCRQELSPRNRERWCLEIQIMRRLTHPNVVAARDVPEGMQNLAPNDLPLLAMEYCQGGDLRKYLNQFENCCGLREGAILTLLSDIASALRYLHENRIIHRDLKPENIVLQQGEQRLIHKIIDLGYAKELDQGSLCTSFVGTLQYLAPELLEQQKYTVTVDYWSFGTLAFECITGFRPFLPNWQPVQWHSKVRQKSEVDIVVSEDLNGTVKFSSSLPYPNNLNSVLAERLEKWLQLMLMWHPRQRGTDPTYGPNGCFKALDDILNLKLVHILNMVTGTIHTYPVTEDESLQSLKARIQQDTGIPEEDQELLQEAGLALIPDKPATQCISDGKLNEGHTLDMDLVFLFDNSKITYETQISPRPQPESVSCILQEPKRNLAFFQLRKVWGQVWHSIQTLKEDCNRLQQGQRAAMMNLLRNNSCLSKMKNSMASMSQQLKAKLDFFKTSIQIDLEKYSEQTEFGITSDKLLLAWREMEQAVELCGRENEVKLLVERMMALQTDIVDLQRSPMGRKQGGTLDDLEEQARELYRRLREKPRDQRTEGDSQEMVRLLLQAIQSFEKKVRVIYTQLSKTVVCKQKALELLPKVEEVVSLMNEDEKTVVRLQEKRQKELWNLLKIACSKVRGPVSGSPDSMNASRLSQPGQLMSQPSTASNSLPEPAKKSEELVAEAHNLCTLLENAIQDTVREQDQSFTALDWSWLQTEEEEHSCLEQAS

HIPK4 = molecular target: T4, HIPK4 (Homo sapiens, UniProt Q8NE63); experiment: biochemical; details: read-out: % enzyme activity, 1 μM; Run 1, Run 2
T4 sequence (Q8NE63 1-616): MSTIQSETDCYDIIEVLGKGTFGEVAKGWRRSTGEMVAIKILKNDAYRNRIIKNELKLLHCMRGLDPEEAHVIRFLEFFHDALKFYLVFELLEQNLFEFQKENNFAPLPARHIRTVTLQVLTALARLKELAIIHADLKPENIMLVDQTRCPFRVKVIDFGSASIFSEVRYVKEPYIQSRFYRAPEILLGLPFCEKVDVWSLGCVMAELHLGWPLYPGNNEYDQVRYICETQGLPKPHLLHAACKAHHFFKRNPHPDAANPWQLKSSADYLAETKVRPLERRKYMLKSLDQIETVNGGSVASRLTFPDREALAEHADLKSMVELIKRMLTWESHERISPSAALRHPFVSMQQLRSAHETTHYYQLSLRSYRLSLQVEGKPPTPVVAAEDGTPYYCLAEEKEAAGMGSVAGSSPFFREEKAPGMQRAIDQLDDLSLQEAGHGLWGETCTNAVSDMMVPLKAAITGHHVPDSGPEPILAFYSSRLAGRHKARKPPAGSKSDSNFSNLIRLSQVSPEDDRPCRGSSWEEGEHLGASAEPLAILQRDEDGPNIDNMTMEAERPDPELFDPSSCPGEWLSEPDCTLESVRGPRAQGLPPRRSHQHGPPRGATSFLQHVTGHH

Chain of HCK (P08631 whole entry): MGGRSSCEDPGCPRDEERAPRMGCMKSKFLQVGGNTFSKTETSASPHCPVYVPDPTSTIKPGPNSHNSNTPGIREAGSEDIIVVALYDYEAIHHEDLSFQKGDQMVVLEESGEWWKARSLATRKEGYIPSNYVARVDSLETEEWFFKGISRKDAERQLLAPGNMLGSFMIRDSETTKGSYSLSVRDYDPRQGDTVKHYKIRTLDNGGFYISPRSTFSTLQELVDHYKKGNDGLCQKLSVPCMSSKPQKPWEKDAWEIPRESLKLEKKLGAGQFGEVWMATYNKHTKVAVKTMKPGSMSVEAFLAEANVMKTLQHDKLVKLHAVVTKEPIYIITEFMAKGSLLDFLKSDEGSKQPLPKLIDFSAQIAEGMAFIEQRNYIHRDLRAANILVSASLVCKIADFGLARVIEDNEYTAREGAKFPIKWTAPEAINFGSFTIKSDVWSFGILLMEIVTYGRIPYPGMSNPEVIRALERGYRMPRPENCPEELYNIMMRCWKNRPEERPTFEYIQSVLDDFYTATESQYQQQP
Chain of ERK2/MAPK1 (P28482 whole entry): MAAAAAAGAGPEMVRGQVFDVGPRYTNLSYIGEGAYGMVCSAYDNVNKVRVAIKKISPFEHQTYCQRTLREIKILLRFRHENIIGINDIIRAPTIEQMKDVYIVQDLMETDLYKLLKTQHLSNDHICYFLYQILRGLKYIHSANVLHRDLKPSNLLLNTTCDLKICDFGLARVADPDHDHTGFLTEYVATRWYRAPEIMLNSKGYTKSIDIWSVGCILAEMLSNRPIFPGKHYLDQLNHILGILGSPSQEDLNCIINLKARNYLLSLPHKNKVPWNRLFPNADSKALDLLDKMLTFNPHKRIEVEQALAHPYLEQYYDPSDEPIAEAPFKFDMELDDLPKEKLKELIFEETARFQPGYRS

SMILES	% enzyme activity (JAK3) [%]	remaining activity at 1 µM (ERK2/MAPK1) [%]	remaining activity at 1 µM (HCK) [%]	remaining activity at 1 µM (CK1a1L) [%]	remaining activity at 1 µM (IKKb/IKBKB) [%]	remaining activity at 1 µM (HIPK4) [%]
COc1cc(-c2cncc(-c3ccc(N4CCN(C)CC4)cc3)c2C)cc(F)c1C(N)=O [Compound 26a, 2-Fluoro-6-methoxy-4-(4-methyl-5-(4-(4-methylpiperazin-1-yl)phenyl)pyridin-3-yl)benzamide]	102.92	92.5	93.6	98.4	104	104
COc1cc(-c2cncc(-c3ccc(N4C[C@@H](C)N(C)[C@@H](C)C4)cc3)c2C)cc(F)c1C(N)=O [Compound 26c, 2-Fluoro-6-methoxy-4-(4-methyl-5-(4-((3R,5S)-3,4,5-trimethylpiperazin-1-yl)phenyl)pyridin-3-yl)benzamide]	99.31	89.8	91.8	99.4	101	101
